According to US20240415804A1, “METHOD OF TREATING PANCREATIC CANCER” (University of South Florida, priority 2022, published 2024):

Legend:
[1] = test system: MDSC and macrophage subsets in the BM; assay: Flow cytometry of MDSC and macrophage subsets in the BM of KC-HPC mice; format: in vivo, mouse; details: API 25 mg/kg IP
Excerpt: All female C57BL/6 mice (6-8 weeks of age) described in this study were purchased from Envigo (Indianapolis, IN, USA) and were acclimatize for one week in a pathogen-free animal facility (University of South Florida (USF) vivarium) before injections with PC cells. To generate heterotopic pancreatic cancer (HPC) models, mice were subcutaneously injected with 1.5×10^5 murine Panc02 (HPC mice) or 5×10^6 murine UN-KC-6141 cells (KC-HPC mice), in sterile 1× phosphate buffer saline (PBS), in the lower ventral abdomen, while control (CTRL) mice received sterile 1×PBS. Once tumors where palpable, API (25 mg/kg, 100 μL volume) treatments (HPC-API and KC-HPC-API), via intraperitoneal (IP) injections, were started while CTRL, HPC and KC-HPC mice received sterile PBS (vehicle) three times per week until the end of the study^12, 55. The HPC models were euthanized 21-28 days post-injection, while the KC-HPC models were euthanized 16-17 days post-injection. The femur and tibia were cut at the pelvic-hip joint and muscle was removed. The femurs and tibias were cut at the ends and flushed with a 30-gauge needle and 10 cc syringe filled with completed RPMI media until bone was white onto a petri dish. Pelleted bone marrow (BM) cells were treated with Red Blood Cell (RBC) lysis buffer (eBioscience, Waltham, MA, USA), according to the manufacturer's instructions, and then filtered through a […] nylon mesh cell strainer in 1×PBS. All pancreatic tumors were manually cut into ˜1-2 mm^3 fragments with a sterile razor blade and then enzymatically digested with Collagenase, type IV (Sigma-Aldrich), DNase, type IV (Sigma-Aldrich) and Hyaluronidase, Type V (Sigma-Aldrich) in Hank's Balanced Salt Solution for 1 h, spun down and washed as described in previous studies^61. Digested pancreatic tumor samples were treated with RBC lysis buffer and then filtered through a […] nylon mesh cell strainer in 1×PBS. Bone marrow and digested pancreatic tumor single cell suspensions were counted with a hemocytometer and then resuspended in 3% FBS/PBS. BM and digested pancreatic tumor cells (1×10^6) were Fc Blocked (anti-mouse CD16/CD32) and then surface stained for 30 min on ice protected from light with fluorescent anti-mouse antibodies including, CD11b-APC, Ly6C-PE/Cy7, Ly6G-PerCP, F4/80-BV650, MHC—II-BV605, CD206-FITC and CD40-PE/Cy5 along with isotype control antibodies (Biolegend, San Diego, CA, USA) to detect MDSC and macrophage subsets. Digested pancreatic tumor cells (1×10^6) were also Fc Blocked and then surface stained with fluorescent anti-mouse antibodies including CD3-FITC, CD8-PercP/Cy5.5, CD4-APC/Cy7, and CD40L-APC along with isotype control antibodies (Biolegend) to detect CD8^+ T cells. Subsequently, all samples were fixed with 2% paraformaldehyde for 15 min on ice protected from light. Acquisition of samples was performed using a flow cytometer BD LSRII (BD Biosciences Immunocytometry Systems). Data analysis was performed using FlowJo v10.8 software (TreeStar Inc.).

[2] = test system: UN-KC-6141 cells; assay: MTT cell viability assay, UN-KC-6141; format: cell-based, mouse; details: API 40 μM, 24 h, vs DMSO vehicle
Protocol: The methyl thiazol tetrazolium (MTT) assay was performed as described previously^58. Briefly, MiaPaCa-2, Panc02 and UN-KC-6141 cells were seeded in 96-well plates at a density of 3000 cells/well and allowed to attach overnight. PC cells were then treated with API (40 μM) or DMSO (1%) as vehicle control for 24 h at 37° C. in 5% CO2 incubator. After 24 h, media was replaced with 20 μL of MTT (1 mg/mL) (Sigma-Aldrich) and incubated for 3 h at 37° C. in 5% CO2. MTT was replaced with DMSO, and absorbance was read at 570 nm.
MiaPaCa-2, Panc02 and UN-KC-6141 cells (2×10^5) were grown in 2 mL of growth medium in a 6-well tissue culture plate for 18-24 h until 60-80% confluency. The following solutions were prepared: Solution A) For each transfection, diluted 1 μL of miRNA-155 inhibitors (1 μM) (Table 2) or scrambled negative control miRNA (1 μM) (Qiagen, Germantown, MD, USA) into 50 μL Opti-MEM Transfection Medium (Invitrogen, Waltham, MA, USA). Solution B) For each transfection, diluted 3 μL of Hi-Perfect Transfection Reagent into 50 μL Opti-MEM Transfection Medium. Solution A was added directly to Solution B, mixed gently and the mixture incubated for 10-15 min at room temperature. […]

[3] = test system: miR-155; assay: miR-155 gene expression in BM and tumor of OPC mice; format: in vivo, mouse; details: API 25 mg/kg IP 3 times per week for 2-3 weeks, vs OPC mice
Protocol: The inventors reported recently that API reduced tumor growth in an orthotopic (O) mouse model of PC (OPC)^12, which is a more clinically relevant model^69. To investigate if API targets miR-155 and regulates SHIP-1 expression in the BM and tumor of an OPC mouse model, OPC mice were treated with API at a dose of 25 mg/kg (IP) 3 times per week for 2-3 weeks. […] To generate orthotopic pancreatic models (OPC), anesthetized (1.5-3% isoflurane) mice were injected in the neck of the pancreas, via laparotomy^59, with sterile PBS (CTRL) or 1.25×10^4 Panc02 cells (OPC), in sterile 1×PBS. Once pancreatic tumors were confirmed through ultrasound imaging (Vevo 2100), a cohort of OPC mice received API (25 mg/kg, 100 μL volume) while CTRL and OPC mice received sterile PBS (vehicle), all via IP, three times per week until the end of the study^12. […] The PCR cycling parameters were 95° C. for 10 min followed by 40 cycles of a denaturing step at 95° C. for 15 s and an annealing/extension step at 60° C. for 1 min. All reactions were performed in triplicate. Relative expression of miR-155 was calculated using the comparative […] method normalized to a mouse endogenous control gene snoRNA202 and human endogenous control gene U6 (Assay IDs: 001232 and 001093).

O=c1cc(-c2ccc(O)cc2)oc2cc(O)cc(O)c12 [API, 40,5,7-Trihydroxyflavone, 5,7-Dihydroxy-2-(4-hydroxyphenyl)-4-benzopyrone]
G-MDSC absolute cell numbers in BM ([1]; vs KC-HPC mice): significantly lowered
M1 macrophage percentages in BM ([1]; vs KC-HPC mice): significantly increased
M1 macrophages absolute cell numbers in BM ([1]; vs KC-HPC mice): no significant changes
M2 macrophage percentages in BM ([1]; vs KC-HPC mice): decreased
M2 macrophages absolute cell numbers in BM ([1]; vs KC-HPC mice): no significant changes
M-MDSC absolute cell numbers in BM ([1]; vs KC-HPC mice): significantly lowered
proportions of G-MDSCs in BM ([1]; vs vehicle treated KC-HPC mice): significantly reduced
proportions of M-MDSCs in BM ([1]; vs vehicle treated KC-HPC mice): without any significant change
cell viability (MTT) [2]: significantly inhibited
miR-155 gene expression in BM [3]: inhibit the overexpression
miR-155 gene expression in pancreatic tumor [3]: significant decrease
